Results as given in patent publication US11628164B2, “Composition containing salsolinol for treating liver cancer” (SUNGSHIN WOMEN'S UNIVERSITY R&DB FOUNDATION, priority 2020, dated 2023).

Key:
[1] = test system: DEN-induced liver cancer mouse model (male); experiment: DEN-induced liver cancer mouse model: liver weight, plasma AFP, tumor number, H&E; type: in vivo, C57BL/6 mouse
Description: The mouse used in the experiment are 7-week old male and female C57BL/6 mouse. The mouse is obtained from Orient Bio (ORIENT Bio, Gyeonggi-do Province, Korea) and is adapted in an environment that the contrast is controlled at a temperature of 22±2° C. and a humidity of 55 to 60% in 12-hour increments, and a standard diet is provided for 1 week. All animal experiments are performed in accordance with the regulations of the Laboratory Animal Ethics Committee of Sungshin Women's University. After adapting a male mouse born from the mating of the adapted mouse in the same environment for 2 weeks, a DEN-induced liver cancer mouse model is generated by a method of intraperitoneally administering a liver cancer-causing substance, diethylnitrosamine (DEN, 25 mg/kg). The salsolinol (200 mg/kg) is administered for 6 months through intraperitoneal injection three times per week from the time when the DEN-induced liver cancer mouse model (male) became 7 weeks of age. After the mouse is sacrificed, the experiment is performed. After the experiment is completed, the experimental animals are fasted for 4 hours, sacrificed with CO2 gas, and the blood collected from the heart is heparinized. And after that, centrifuge separation is performed at 3,000 rpm for 15 minutes to separate plasma. AFP (α-Fetoprotein) analysis is measured by enzyme-linked immunosorbent assay (ELISA). The separated plasma is diluted 20 times with a diluted solution, and after that, a 50 μl of standard curve reagent and plasma are inserted into a coated 96-well plate, and after that, the culturing is performed for 2 hours at room temperature. The culture medium is removed, and washing is performed 3 times with 100 μl of wash buffer. After adding 100 μl of prepared AFP conjugate to each well, the culturing is performed for 2 hours at room temperature. The culture medium is removed, and washing is performed 3 times with 100 μl of wash buffer. After adding 100 μl of reaction reagent to each well, the culturing is performed for 30 minutes in a dark place. After adding the same amount of reaction stop reagent to each well, tapping is lightly performed to mix thoroughly. With respect to the degree of reaction, after measuring the absorbance at 450 nm, the concentration of AFP is quantified by using a standard curve of a SpectraMax 190 microplate plate reader (Molecular Devices, LCC. San Jose, Calif.). The liver tissue is separated, the number of tumors is measured, and the degree of tumor formation is illustrated by a picture. After fixing 10% formaldehyde for morphological analysis, a paraffin section slide having a thickness of 4 μm is requested to be manufactured by Notus Co., Ltd. After removing paraffin No. 3 with xylene and re-dehydration in 95% and 70% alcohol, staining is performed by using Mayer's Hematoxylin. A male DEN-induced liver cancer mouse model is prepared by intraperitoneal (IP) administration of DEN 25 mg/kg, and the salsolinol 200 mg/kg is administered intraperitoneally to the model, and an effect of the salsolinol on liver cancer treatment is checked.

[2] = test system: SK-Hep1; experiment: Cell migration assay (culture-insert gap); type: cell-based, human; conditions: 25 μM salsolinol
Description: A culture-insert (Ibidi; Martinsried, Germany) is attached to a 24-well plate to make a 500 μm interval, and then the cultured liver cancer cell lines (SK-Hep1) are dispensed so as to have a concentration of 1.5×10^5 cells. And the culturing is performed for 24 hours. After detaching the insert from the plate, each well is treated with the salsolinol so as to have a concentration of 25 μM. After the culturing is performed for 24 hours and for 48 hours, and the sample is photographed by a microscope to check the ability of migrating cells. The SK-Hep1 cells are dispensed into the culture-insert so as to have a concentration of 1.5×10^5 cells, and the culturing is performed for 24 hours. After detaching the insert from the plate, each well is treated with the salsolinol so as to have a concentration of 25 μM. After the culturing is performed for 24 hours and 48 hours, and the sample is photographed by a microscope to check the cell migration ability (refer to FIG. 3). […] When the culturing is performed for 48 hours, a large number of SK-Hep1 cells are migrated, and it is confirmed that the scratch disappears.

[3] = test system: SNU387; experiment: MTT cell viability, female-derived liver cancer cell line; type: cell-based, human; conditions: SNU387, 5-100 μM salsolinol, 24, 48, 72 hours
Description: SK-Hep1 and SNU387, which are human-derived hepatoma cell lines, are distributed from Korea Cell Line Bank. […] The SK-Hep1 and the SNU387 are cultured in a medium including a minimum essential medium (Dulbecco Modified Eagle Medium, DMEM) (Gibco BRL grand Island, N.Y., USA) and in a medium containing 10% FBS (HyClone Lab, Inc, Logan, Utah, USA), 100 U/ml penicillin. (penicillin) and 100 μg/ml streptomycin (Gibco, Grand Island, N.Y., USA) at 37° C. in an atmosphere of 5% CO2. The cultured liver cancer cell lines (SK-HEP1 and SNU387) are dispensed into each well of a 48-well plate so as to have a concentration of 5×10^4 cells. After culturing for 24 hours, the sample is treated with the salsolinol for 24 hours, 48 hours, and 72 hours so as to have a concentration of 5 μM, 15 μM, 25 μM, 50 μM, or 100 μM. After that, 250 μl of 0.5 mg/ml MTT solution (Sigma, St Louis, Mo., US) is added to each well and reacted at 37° C. for 1 hour. After removing the solution, MTT-formazione is lysed and washed with 250 μl of DMSO (Dimethylsulfoxide, Duksan, Gyeonggi, Korea), and then, the absorbance at 540 nm is measured by using a SpectraMax 190 microplate plate reader (Molecular Devices, LCC. San Jose, Calif.). […]

SMILES: CC1NCCc2cc(O)c(O)cc21 (stereo not drawn) [salsolinol, 6,7-dihydroxy-1-methyl-1,2,3,4-tetrahydroisoquinoline]
- abnormal types of hepatocytes (H&E staining) ([1]; DEN+SAL liver tissue): not observed
- decrease in number of liver cancer tissues compared with DEN model ([1]; DEN+SAL male mice, salsolinol 200 mg/kg i.p.): about 60%
- weight of the liver tissue ([1]; DEN+SAL male mice, salsolinol 200 mg/kg i.p. three times per week, 6 months): slightly equal to that of the normal mouse
- average number of liver cancer tissues on the liver surface ([1]; DEN+SAL male mice, salsolinol 200 mg/kg i.p., DEN model about 10): four
- plasma AFP level (average) ([1]; DEN+SAL male mice, salsolinol 200 mg/kg i.p., normal mouse 50, DEN model 720 ng/ml): 200 ng/mL
- liver cancer tissue on the liver surface ([1]; normal mouse administered with salsolinol alone (SAL)): no liver cancer tissue is found
- cell migration ability ([2]; 24 hours): some cells are migrated, but the scratch portion is clearly distinguished
- cell migration ability ([2]; 48 hours): scratch portion does not disappear
- cell viability (MTT) [3]: cell viability is not decreased
